Data taken from ChEMBL document CHEMBL1149079, “A novel sesquiterpene quinone from Hainan sponge Dysidea villosa” (Bioorg Med Chem Lett, 2009).
Calls of active or inactive are those of the source. The calls are words filed in the database; no cut-off is given here.

Key:
[1] = system: Human immunodeficiency virus 1; assay: Antiviral activity against HIV1; format: functional, organism-based
[2] = target: T1, Tyrosine-protein phosphatase non-receptor type 1 (Homo sapiens, UniProt P18031); assay: Inhibition of human PTP1B
T1 sequence (P18031 whole entry): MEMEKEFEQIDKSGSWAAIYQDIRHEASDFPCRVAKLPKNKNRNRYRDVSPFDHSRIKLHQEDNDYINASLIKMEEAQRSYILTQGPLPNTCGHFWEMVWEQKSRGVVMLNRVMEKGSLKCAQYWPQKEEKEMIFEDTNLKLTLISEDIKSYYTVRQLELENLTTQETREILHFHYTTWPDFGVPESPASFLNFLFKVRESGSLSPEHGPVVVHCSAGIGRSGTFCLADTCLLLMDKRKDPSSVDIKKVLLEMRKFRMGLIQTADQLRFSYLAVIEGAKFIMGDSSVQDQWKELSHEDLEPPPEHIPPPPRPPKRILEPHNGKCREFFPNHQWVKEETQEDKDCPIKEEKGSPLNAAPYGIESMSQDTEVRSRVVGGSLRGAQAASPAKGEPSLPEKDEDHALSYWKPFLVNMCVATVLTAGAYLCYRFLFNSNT

HeLa = assay: Cytotoxicity against human HeLa cells; format: functional, cell-based
3T3-L1 [3] = assay: Induction of membrane translocation of GLUT4 transporter in mouse 3T3L1 cells; format: functional, cell-based
3T3-L1 [4] = assay: Increase in glucose uptake in mouse 3T3L1 cells relative to control; format: functional
3T3-L1 [5] = assay: Activation of insulin signaling pathway in mouse 3T3L1 cells; format: functional, cell-based
CHO-K1 [6] = assay: Activation of insulin signaling pathway in CHOK1 cells; format: functional, cell-based; conditions: Cricetulus griseus
CHO-K1 [7] = assay: Induction of membrane translocation of GLUT4 transporter in CHOK1 cells; format: functional, cell-based; conditions: Cricetulus griseus

`CC1=CCC[C@H]2[C@](C)(CC3=CC(=O)C=CC3=O)[C@@H](C)CC[C@]12C` was tested, and the Activity [1] was “inactive”.

`COC1=CC(=O)C=C(C[C@@]2(C)CC[C@]3(C)C(C)=CCC[C@H]3[C@H]2C)C1=O` was tested, and the IC50 [2] was 39.5 µM, the IC50 (HeLa) was 19.4 µM and the Activity [1] was “inactive”.

For `COC1=CC(=O)C(O)=C(C[C@@]2(C)CC[C@]3(C)C(C)=CCC[C@H]3[C@H]2C)C1=O` [BOLINAQUINONE], the IC50 (HeLa) was 5.45 µM and the Activity [1] was “inactive”.

With `CC1=CCC[C@H]2[C@@H](C)[C@@](C)(CC3=C(O)C(=O)C=C(NCCS(=O)(=O)O)C3=O)CC[C@]12C` [DYSIDINE] the Activity (3T3-L1 [3]) was “Active”, the Activity (3T3-L1 [4]) was 2.3 and the IC50 [2] was 6.7 µM. The Activity (3T3-L1 [5]) was “Active”, the Activity (CHO-K1 [6]) was “Active” and the Activity [1] was “inactive”. For the same compound, the Activity (CHO-K1 [7]) was “Active”.

In the case of `CC1=CCC[C@H]2[C@](C)(Cc3cc(O)ccc3O)[C@@H](C)CC[C@]12C`, the Activity [1] is reported as “inactive”.
